One assay addresses T1, IL-17A : IL-17RA binding (Homo sapiens, UniProt Q16552, K93Q).
T1 construct: Name: IL-17A-Flag
The assay is described as follows: IL-17A(FLAG-tagged):IL-17RA(His-tagged) binding disruption Eu-HTRF assay, Protocol 1. The settings on record: FLAG-IL-17A 2.5 nM at 2x final concentration; average if tested more than once. The essentials: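 IC50 came from a one-site competition fit of the acceptor/donor (665/620 nm) HTRF ratio. His-tagged IL-17RA, Eu-anti-FLAG and D2-anti-His were added after a 1 h rt compound preincubation with FLAG-tagged IL-17A dimer in PBS/0.01% Triton X-100, followed by 2 h at rt before reading.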
In general terms: Time-resolved FRET reads energy transfer from a long-lived donor to a nearby acceptor.

Assay [1] concerns IL-17A-induced G-CSF production in human normal keratinocyte (NHK). The experiment in a line: NHK assay: IL-17A-induced G-CSF production in normal human keratinocytes. In kind it is cell-based. The settings on record: 24 h, IL-17A 5 ng/mL, average if tested more than once. In outline: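 IC50 derives from G-CSF in supernatants, quantified by HTRF from a standard curve, with CellTiter-Glo viability compared to DMSO control. Before a 24 h, 37°C culture of normal human keratinocytes at 3000–4000 cells/well, compound dilutions were preincubated 1 h at rt with human IL-17A (5 ng/mL final), with 0.2% DMSO and 5% FBS.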

What is called IC50 is the point on the concentration scale where inhibition reaches its midpoint. Higher therefore signals weaker potency.

The structures appear in SMILES notation.

T1 sequence (Q16552 with tags, fused parts or gaps K93Q): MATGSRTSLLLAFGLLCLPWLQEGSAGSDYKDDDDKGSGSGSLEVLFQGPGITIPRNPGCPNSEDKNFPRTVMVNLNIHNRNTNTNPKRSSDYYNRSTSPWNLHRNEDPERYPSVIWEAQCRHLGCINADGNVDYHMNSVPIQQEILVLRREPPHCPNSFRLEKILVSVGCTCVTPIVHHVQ

As to `C[C@@H](NC(=O)CC(C(F)(F)F)C(F)(F)F)c1ccc2nc([C@@H](NC(=O)c3cccc(C#N)c3)C3CCC(F)(F)CC3)[nH]c2c1` [Example 132, 3-Cyano-N—((S)-(4,4-difluorocyclohexyl)(6-((R)-1-(4,4,4-trifluoro-3-(trifluoromethyl)butanamido)ethyl)-1H-benzo[d]imidazol-2-yl)methyl)benzamide], the IC50 was above 100 nM on IL-17A : IL-17RA binding and above 100 nM in assay [1] (Homo sapiens, Keratinocyte).
For the compound `C[C@@H](NC(=O)CCC(F)(F)F)c1ccc2[nH]c([C@@H](NC(=O)c3cn(CC(F)(F)F)nn3)C3CCC(F)(F)CC3)nc2c1` [Example 24, N—[(S)-(4,4-Difluorocyclohexyl)-[6-[(1R)-1-(4,4,4-trifluorobutanoylamino)ethyl]-1H-benzimidazol-2-yl]methyl]-1-(2,2,2-trifluoroethyl)triazole-4-carboxamide], the IC50 was above 100 nM at IL-17A : IL-17RA binding and above 100 nM in assay [1] (Homo sapiens, Keratinocyte).
Regarding `CC(CC(=O)N[C@H](C)c1ccc2nc([C@@H](NC(=O)c3ccnn3CCC(F)(F)F)C3CCC(F)(F)CC3)[nH]c2c1)C(F)(F)F` (single isomer, unassigned) [Example 134, N—((S)-(4,4-Difluorocyclohexyl)(6-((R)-1-((R*)-4,4,4-trifluoro-3-methylbutanamido)ethyl)-1H-benzo[d]imidazol-2-yl)methyl)-1-(3,3,3-trifluoropropyl)-1H-pyrazole-5-carboxamide], the IC50 at IL-17A : IL-17RA binding is above 100 nM; in assay [1] (Homo sapiens, Keratinocyte) it was above 100 nM.
For `C[C@@H](NC(=O)CCC(F)(F)F)c1ccc2nc([C@@H](NC(=O)c3cnnn3CCC(C)(C)C)C3CCC(F)(F)CC3)[nH]c2c1` [Example 68, N—((S)-(4,4-Difluorocyclohexyl)(6-((R)-1-(4,4,4-trifluorobutanamido)ethyl)-1H-benzo[d]imidazol-2-yl)methyl)-1-(3,3-dimethylbutyl)-1H-1,2,3-triazole-5-carboxamide], the IC50 on IL-17A : IL-17RA binding was above 100 nM; in assay [1] (Homo sapiens, Keratinocyte), above 100 nM.
For the compound `C[C@@H](NC(=O)CCC(F)(F)F)c1ccc2[nH]c([C@@H](NC(=O)c3nccn3CCC(F)(F)F)C3CCC(F)(F)CC3)nc2c1` [Example 227, N—((S)-(4,4-Difluorocyclohexyl)(5-((R)-1-(4,4,4-trifluorobutanamido)ethyl)-1H-benzo[d]imidazol-2-yl)methyl)-1-(3,3,3-trifluoropropyl)-1H-imidazole-2-carboxamide], the IC50 on IL-17A : IL-17RA binding is above 100 nM; in assay [1] (Homo sapiens, Keratinocyte) it was above 100 nM.
On to `C[C@@H](NC(=O)CCC(F)(F)F)c1ccc2[nH]c([C@@H](NC(=O)c3cn(CC45CC(C#N)(C4)C5)nn3)C3CCC(F)(F)CC3)nc2c1` [Example 79, 1-((3-Cyanobicyclo[1.1.1]pentan-1-yl)methyl)-N—((S)-(4,4-difluorocyclohexyl)(5-((R)-1-(4,4,4-trifluorobutanamido)ethyl)-1H-benzo[d]imidazol-2-yl)methyl)-1H-1,2,3-triazole-4-carboxamide], for which the IC50 on IL-17A : IL-17RA binding was above 100 nM; in assay [1] (Homo sapiens, Keratinocyte) it was above 100 nM.
In the case of `C[C@@H](NC(=O)CCC(F)(F)F)c1ccc2[nH]c([C@@H](NC(=O)[C@@H]3CC[C@@H]3CF)C3CCC(F)(F)CC3)nc2c1` (single isomer, unassigned) [Example 113], the IC50 was above 100 nM at IL-17A : IL-17RA binding and above 100 nM in assay [1] (Homo sapiens, Keratinocyte).
With `C[C@@H](NC(=O)CCC(F)(F)F)c1ccc2nc([C@@H](NC(=O)c3cnnn3C3CC3)C3CCC(F)(F)CC3)[nH]c2c1` [Example 60, 1-Cyclopropyl-N—((S)-(4,4-difluorocyclohexyl)(6-((R)-1-(4,4,4-trifluorobutanamido)ethyl)-1H-benzo[d]imidazol-2-yl)methyl)-1H-1,2,3-triazole-5-carboxamide], the concentration for half-maximal inhibition (IC50) on IL-17A : IL-17RA binding was above 100 nM; in assay [1] (Homo sapiens, Keratinocyte), above 100 nM.
As for `C[C@@H](NC(=O)CCC(F)(F)F)c1ccc2nc([C@@H](NC(=O)c3cnn(C)c3C(F)F)C3CCC(F)(F)CC3)[nH]c2c1` [Example 59, N—((S)-(4,4-Difluorocyclohexyl)(6-((R)-1-(4,4,4-trifluorobutanamido)ethyl)-1H-benzo[d]imidazol-2-yl)methyl)-5-(difluoromethyl)-1-methyl-1H-pyrazole-4-carboxamide], the IC50 on IL-17A : IL-17RA binding was above 100 nM; in assay [1] (Homo sapiens, Keratinocyte) it was above 100 nM.
As to `CC(C)n1nccc1C(=O)N[C@H](c1nc2ccc([C@H](NC(=O)CC3CC(F)(F)C3)C3CC3)cc2[nH]1)C1CC(F)(F)CCO1` (single isomer, unassigned) [Example 172, N—((R)-(6-((R)-Cyclopropyl(2-(3,3-difluorocyclobutyl)acetamido)methyl)-1H-benzo[d]imidazol-2-yl)((S*)-4,4-difluorotetrahydro-2H-pyran-2-yl)methyl)-1-isopropyl-1H-pyrazole-5-carboxamide], the IC50 on IL-17A : IL-17RA binding was above 100 nM; in assay [1] (Homo sapiens, Keratinocyte) it was below 50 nM.
In the same order, the values of `CC(C)n1nccc1C(=O)N[C@@H](COC(C)(C)C(F)(F)F)c1nc2cc([C@H](NC(=O)CC3CC(F)(F)C3)C3CC3)ccc2[nH]1` [Example 160, N—((R)-1-(5-((R)-Cyclopropyl(2-(3,3-difluorocyclobutyl)acetamido)methyl)-1H-benzo[d]imidazol-2-yl)-2-((1,1,1-trifluoro-2-methylpropan-2-yl)oxy)ethyl)-1-isopropyl-1H-pyrazole-5-carboxamide] are below 50 nM and below 50 nM.
Take `C[C@@H](NC(=O)CCC(F)(F)F)c1ccc2nc([C@@H](NC(=O)c3cnnn3CC3CCC3)C3CCC(F)(F)CC3)[nH]c2c1` [Example 63, 1-(Cyclobutylmethyl)-N—((S)-(4,4-difluorocyclohexyl)(6-((R)-1-(4,4,4-trifluorobutanamido)ethyl)-1H-benzo[d]imidazol-2-yl)methyl)-1H-1,2,3-triazole-5-carboxamide]: the IC50 was 50 to 100 nM at IL-17A : IL-17RA binding and 50 to 100 nM in assay [1] (Homo sapiens, Keratinocyte).
As to `C[C@@H](NC(=O)CCC(F)(F)F)c1ccc2[nH]c([C@@H](NC(=O)c3cnnn3CCOC(F)(F)F)C3CCC(F)(F)CC3)nc2c1` [Example 36, N—[(S)-(4,4-Difluorocyclohexyl)-[6-[(1R)-1-(4,4,4-trifluorobutanoylamino)ethyl]-1H-benzimidazol-2-yl]methyl]-3-[2-(trifluoromethoxy)ethyl]triazole-4-carboxamide], the IC50 on IL-17A : IL-17RA binding is above 100 nM; in assay [1] (Homo sapiens, Keratinocyte), 50 to 100 nM.
Taken in the same sequence, the figures for `CC(C)c1nnsc1C(=O)N[C@H](c1nc2cc([C@@H](C)NC(=O)CCC(F)(F)F)ccc2[nH]1)C1CCC(F)(F)CC1` [Example 188, N—((S)-(4,4-Difluorocyclohexyl)(5-((R)-1-(4,4,4-trifluorobutanamido)ethyl)-1H-benzo[d]imidazol-2-yl)methyl)-4-isopropyl-1,2,3-thiadiazole-5-carboxamide] were above 100 nM and above 100 nM.
Turning to `Cc1nonc1C(=O)N[C@@H](CC(C)(C)C(F)(F)F)c1nc2ccc([C@H](NC(=O)CC3CC3(F)F)C3CC3)cc2[nH]1` (single isomer, unassigned) [Example 184, N—((S)-1-(6-((R)-Cyclopropyl(2-((S*)-2,2-difluorocyclopropyl)acetamido)methyl)-1H-benzo[d]imidazol-2-yl)-4,4,4-trifluoro-3,3-dimethylbutyl)-4-methyl-1,2,5-oxadiazole-3-carboxamide], the figures for the IC50 (on IL-17A : IL-17RA binding; in assay [1]) were 50 to 100 nM and above 100 nM, respectively.
For `C[C@@H](NC(=O)CCC(F)(F)F)c1ccc2nc([C@@H](NC(=O)c3cnn(CCC(C)(C)C)n3)C3CCC(F)(F)CC3)[nH]c2c1` [Example 67, N—((S)-(4,4-Difluorocyclohexyl)(6-((R)-1-(4,4,4-trifluorobutanamido)ethyl)-1H-benzo[d]imidazol-2-yl)methyl)-2-(3,3-dimethylbutyl)-2H-1,2,3-triazole-4-carboxamide], the IC50 at IL-17A : IL-17RA binding is above 100 nM; in assay [1] (Homo sapiens, Keratinocyte), above 100 nM.
`CC(NC(=O)CCC(F)(F)F)c1ccc2nc([C@H](CC(C)(C)C(F)(F)F)NC(=O)c3ccnn3CCC(F)(F)F)[nH]c2c1` (single isomer, unassigned) [Example 230, N—((S)-4,4,4-Trifluoro-3,3-dimethyl-1-(6-((R*)-1-(4,4,4-trifluorobutanamido)ethyl)-1H-benzo[d]imidazol-2-yl)butyl)-1-(3,3,3-trifluoropropyl)-1H-pyrazole-5-carboxamide]: the IC50 on IL-17A : IL-17RA binding was above 100 nM; in assay [1] it was 50 to 100 nM.
For `CC(CC(=O)N[C@H](C)c1ccc2nc([C@@H](NC(=O)c3ccnn3CC(F)(F)F)C3CCC(F)(F)CC3)[nH]c2c1)C(F)(F)F` (single isomer, unassigned) [Example 133, N—((S)-(4,4-Difluorocyclohexyl)(6-((R)-1-((R*)-4,4,4-trifluoro-3-methylbutanamido)ethyl)-1H-benzo[d]imidazol-2-yl)methyl)-1-(2,2,2-trifluoroethyl)-1H-pyrazole-5-carboxamide], the IC50 is above 100 nM at IL-17A : IL-17RA binding and above 100 nM in assay [1] (Homo sapiens, Keratinocyte).
As for `CC(C)c1ncsc1C(=O)N[C@H](c1nc2cc([C@@H](C)NC(=O)CCC(F)(F)F)ccc2[nH]1)C1CCC(F)(F)CC1` [Example 203, N—((S)-(4,4-Difluorocyclohexyl)(5-((R)-1-(4,4,4-trifluorobutanamido)ethyl)-1H-benzo[d]imidazol-2-yl)methyl)-4-isopropylthiazole-5-carboxamide], the IC50 was above 100 nM on IL-17A : IL-17RA binding and above 100 nM in assay [1] (Homo sapiens, Keratinocyte).
